pIC50: −log10 of the molar value.
How the values were obtained:
[1] = test system: experimental allergic encephalomyelitis (EAE); settings: dose dependent; Gijbels et al. 1994; cited from earlier work
[2] = test system: Mycobacterium footpad edema; assay: Mycobacterium footpad edema assay (MFE); type: in vivo, male Wistar rats; settings: daily, third day, statistically significant
Description: The activity of Example 2 as a general inhibitor of inflammation was tested using the Mycobacterium footpad edema assay (MFE) in Wistar rats. Compound was administered daily by gavage at 2 mg/kg, 10 mg/kg, or 50 mg/kg.
Male outbred Wistar rats (110-125 g, Charles River Labs, Portage, Mich.) were used in this study. Rats were housed for a minimum of 1 week before use. Food and water were supplied ad libitum. Foot pad edema was induced following the method described by Martel R. R. and Klicius J., "Comparisons in rats of the anti-inflammatory and gastric irritant effects of etodolac with several clinically effective antiinflammatory drugs", Agents and Actions, 1982;12:295. Briefly, male Wistar rats were injected subcutaneously into the right hind footpad with 0.1 mL of 5 mg/mL suspension of killed and dried Mycobacterium butyricum (Difco, Detroit, Mich.) in liquid paraffin. Compound was suspended in 0.5% hydroxypropylmethylcellulose (HPMC) containing 0.2% Tween-80 and administered orally 1 hour before injection. Subsequent doses of the compound were given 24 and 48 hours after the Mycobacterium. Control animals were given vehicle alone. Swelling was assessed on the third day by subtracting the initial volume (determined immediately following the Mycobacterium injection) from the final volume of the treated paw. Paw volume was determined by mercury plethysmography. The percent inhibition of edema achieved in each compound-treated group was determined by comparison with swelling in the vehicle-treated group and the ID50 values were determined by regression analysis. Statistical significance between experimental groups was evaluated using a Student's t-test.

[3] = target: GCD (recombinant gelatinase A catalytic domain); assay: Inhibition of thiopeptolide substrate conversion by GCD; type: biochemical; settings: thiopeptolide substrate Ac-Pro-Leu-Gly-thioester-Leu-Leu-Gly-OEt
Excerpt: Matrix metalloproteinases share high sequence hemology and the catalytic domains of each of the MMPs can be identified by sequence alignment. The gene for the catalytic domain of stromelysin-1, SCD, was constructed by removing the propeptide and C-terminal domain (Ye Q.-Z., Johnson L. L, Hupe D. J., and Baragi V., "Purification and Characterization of the Human Stromelysin Catalytic Domain Expressed in Escherichia coli", Biochemistry,1992;31:11231-11235). The gelatinase A catalytic domain, GCD, was similarly constructed with the additional removal of the fibronectin-like insert which interrupts the catalytic domain (Ye Q.-Z., Johnson L. L., Yu A. E., and Hupe D., "Reconstructed 19 kDa Catalytic Domain of Gelatinase A is an Active Proteinase", Biochemistry, 1995;34:4702-4708). Both truncated proteins cleave synthetic peptide substrates and the natural substrates proteoglycan and gelatin in a manner similar to the full-length enzymes and can be used to identify matrix metalloproteinase inhibitors.
Experiments were carried out with both the full-length enzymes and the catalytic domains. […] IC50 values were determined using a thiopeptolide substrate, Ac-Pro-Leu-Gly-thioester-Leu-Leu-Gly-OEt (Ye Q.-Z., Johnson L. L., Hupe D. J., and Baragi V., "Purification and Characterization of the Human Stromelysin Catalytic Domain Expressed in Escherichia coli", Biochemistry,1992;31:11231-11235). […]

[4] = Plasma concentrations; type: in vivo
[5] = test system: experimental allergic encephalomyelitis (EAE); assay: EAE Lewis rat acute model, Protocol 1 (daily oral dosing); type: in vivo, female Lewis rats
Description: (§1) The activity of Example 2 in suppressing the inflammatory disease associated with EAE was tested using the Lewis rat acute model. Female Lewis rats were purchased from Harlan Sprague-Dawley (Indianapolis, Ind.) and were used at 8 to 10 weeks of age. Active EAE was induced by injection of 0.05 mL emulsion of myelin basic protein (MBP) with complete Freund's adjuvant (CFA), containing 25 μg guinea pig MBP and 100 μg Mycobacterium butyricum (Difco Laboratories, Detroit, Mich.) into one hind footpad. Immunized rats were observed daily for clinical signs of EAE and scored as follows: 0, no symptoms; 1, loss of tail tonicity; 2, paresis; 3, hind limb paralysis, often accompanied by incontinence; and 4, death. Formalin-fixed brain slice sections were stained with hematoxylin-eosin and evaluated microscopically for perivascular and parenchymal infiltration. Compound was administered by gavage as a solution in sterile saline in a volume of 500 μL. The dose of 50 mg/kg typically required 7.5 mg of compound per rat. Several different protocols were used to define the efficacy and timing retirements for potency.
Protocol 1: Compound was administered daily at 50 mg/kg beginning on Day 0 and continuing through Day 14, with MBP in CFA administered on Day 0 also. […] The percentage of animals responding is also very high with 100% of treated animals-showing either a total inhibition of symptoms (80%) or reduction of symptoms (20%). N=5 for all groups.

[6] = test system: experimental allergic encephalomyelitis (EAE); assay: EAE Lewis rat acute model, Protocol 2 (alternate day dosing); type: in vivo, female Lewis rats; settings: for Effect on EAE Rats (≥ Paresis/Total): CFA + MBP, PBS control 5/7
Description: as §1
Protocol 2: To determine whether less frequent dosing or dosing at lower levels was still effective at suppressing EAE, compound was administered at either 50 mg/kg or at 10 mg/kg on Day 0 and on alternate days through Day 14. […] Controls run in parallel included CFA only and MBP in CFA. N=4 for treatment groups. N=8 for controls.

[7] = test system: leukocyte migration across the blood-brain barrier; assay: Histology of brain slices from EAE rats, Protocol 1; type: in vivo, Lewis rat; settings: 50 mg/kg daily
Description: as §1

[8] = test system: bovine nasal and pig articular cartilage; settings: Andrews et al. 1992; Ellis et al. 1994; cited from earlier work

## CNC(=O)[C@H](Cc1c[nH]c2ccccc12)NC(=O)[C@@H](CC(=O)NO)CC(C)C [GM6001]
[1]
  clinical expression/development of EAE: suppressed the development or reversed the clinical expression

## O=C(O)CCC(=NO)c1ccc2oc3ccccc3c2c1 [Example 2, 4-Dibenzofuran-2-yl-4-hydroximino-butyric acid]
[2]; 2 mg/kg oral
  % Inhibition of Swelling: 23%
[2]; 10 mg/kg oral
  % Inhibition of Swelling: 27%
[2]; 50 mg/kg oral
  % Inhibition of Swelling: 40%
[3]
  pIC50: 7.40
[4]; 2, 10, 50 mg/kg
  Cmax and AUC(0-b 4) versus dose: increase proportionately with dose
[4]; effective range of gelatinase A and stromelysin-1 inhibition in the in vitro assays
  bioavailability versus effective range in vitro: well in excess of the effective range of gelatinase A and stromelysin-1 inhibition
[5]; 50 mg/kg daily, Day 0-14
  effect on average scores for the treated group: substantially reduced the average scores
[5]; 50 mg/kg daily, Day 0-14, N=5
  treated animals showing either a total inhibition of symptoms or reduction of symptoms: 100%
[5]; CFA + MBP, 50 mg/kg daily oral from Day 0
  Day of Peak: 12 days
[5]; CFA + MBP, 50 mg/kg daily oral from Day 0, N=5, SD 1.22, PBS control 3.0
  Clinical Grade at Peak of Disease Expression: 1.0
[5]; CFA + MBP, 50 mg/kg daily oral from Day 0, PBS control 5/5
  Effect on EAE Rats (≥ Paresis/Total): 1/5
[5]; CFA without MBP, 50 mg/kg daily oral from Day 0
  Effect on EAE Rats (≥ Paresis/Total): 0/5
[5]; CFA without MBP, 50 mg/kg daily oral from Day 0, N=5, SD 0
  Clinical Grade at Peak of Disease Expression: 0
[6]; 10 mg/kg alternate days
  Effect on EAE Rats (≥ Paresis/Total): 0/4
[6]; 50 mg/kg alternate days
  Effect on EAE Rats (≥ Paresis/Total): 0/4
[6]; Day 15, p≤0.01, 10 or 50 mg/kg alternate days
  decrease in disease severity, significance: highly significant
[7]
  CNS inflammation: little CNS inflammation
  cuff formation: no cuff formation
  leukocyte migration across the blood-brain barrier: completely prevented

## TIMP-1: natural endogenous inhibitors of MMPs (TIMPs)
[8]
  formation of collagen fragments: prevented the formation of collagen fragments

From patent US5665764A, “Tricyclic inhibitors of matrix metalloproteinases” (Warner-Lambert Company, priority 1995, dated 1997)
